Experimental data reported in patent US20240226097A1, “METHODS OF CANCER TREATMENT USING A COMBINATION OF BTK INHIBITORS AND PI3 KINASE INHIBITORS” (priority 2021, published 2024).

Legend:
Assay type in all cases: in vivo
TMD8 cells = assay: TMD8 DLBCL xenograft mouse model, tumor growth inhibition; settings: single agent, day 14
Method: TMD8 cells are of DLBCL origin. TMD8 cells were cultured in RPMI1640 complete medium supplemented with 10% (v/v) fetal bovine serum, and 100 μg/mL of penicillin and streptomycin. On the day of implantation, aggregated cells were dispersed. Four hours later, media was removed, and the cells were collected as described above. Cells were re-suspended in cold (4° C.) PBS and same volume of matrigel was added to give a final concentration of 5×10^7 cells/mL for TMD8. Re-suspended cells were placed on ice prior to inoculation. The right flank region of each mouse (NOD/SCID) was cleaned with 75% ethanol prior to cell inoculation. Animals were then injected subcutaneously with 1×10^7 TMD8 cells in 200 μl of cell suspension in the right front flank via a 26-gauge needle.
On day 15 after inoculation, animals were randomly divided into 8 groups with 10 mice per group according to the tumor volume. The groups consisted of vehicle group (0.5% (w/v) methylcellulose solution), 2.5 mg/kg BTK-1 (dissolved in 0.5% (w/v) methylcellulose solution), 10 mg/kg Compound 1 (dissolved in 0.5% (w/v) methylcellulose solution), 30 mg/kg Compound 1 (dissolved in 0.5% (w/v) methylcellulose solution), 100 mg/kg Compound 1 (dissolved in 0.5% (w/v) methylcellulose solution) and the combination of Compound 1/BTK-1 (10 mg/kg Compound 1 and 2.5 mg/kg BTK-1), (30 mg/kg Compound 1 and 2.5 mg/kg BTK-1), or (100 mg/kg Compound 1 and 2.5 mg/kg BTK-1), see Table 3. BTK-1 and Compound 1 were administered by oral gavage (p.o.) twice daily (BID). After implantation, primary tumor volume was measured in two dimensions using a caliper. Compound 1 was (S)-3-(1-(8-amino-1-methylimidazo[1,5-a] pyrazin-3-yl)ethyl)-5-chloro-6-fluoro-2-isopropoxy-N-(2-(4-methylpiperazin-1-yl)ethyl)benzamide.
Individual body weight was recorded twice weekly, with mice being monitored daily for clinical signs of toxicity for the duration of the study. Mice were euthanized using carbon dioxide when their tumor volume reached 2,000 mm^3 after twice measurements, the tumor was ulcerated, or body weight loss exceeded 20%.
(§1) Tumor volume was calculated using the formula: V=0.5×(a×b^2) where a and b are the long and short diameters of the tumor, respectively. Tumor growth inhibition (TGI) was calculated using the formula in the above examples.

MINO cells = assay: MINO MCL xenograft mouse model, tumor growth inhibition; settings: single agent, day 24
Method: MINO cells are of MCL origin. The MINO cells were cultured in RPMI1640 complete medium supplemented with 10% (v/v) fetal bovine serum, and 100 μg/mL of penicillin and streptomycin. On the day of implantation, aggregated cells were dispersed. Four hours later, media was removed, and the cells were collected as described above. Cells were re-suspended in cold (4° C.) PBS with a final concentration of 1×10^8 cells/mL. Re-suspended cells were placed on ice prior to inoculation. The right flank region of each mouse (NOD/SCID) was cleaned with 75% ethanol prior to cell inoculation. Animals were then injected subcutaneously with 1×10^7 MINO cells in 100 μl of cell suspension in the right front flank via a 26-gauge needle.
On day 1 after inoculation, animals were randomly divided into 6 groups with 10 mice per group according to the inoculation order. The groups consisted of vehicle group (0.5% (w/v) methylcellulose solution), 7.5 mg/kg BTK-1 (dissolved in 0.5% (w/v) methylcellulose solution), 12 mg/kg Compound 2 (dissolved in 0.5% (w/v) methylcellulose solution), 36 mg/kg Compound 2 (dissolved in 0.5% (w/v) methylcellulose solution) and the combination of Compound 2/BTK-1 (12 mg/kg Compound 2 and 7.5 mg/kg BTK-1), or (36 mg/kg Compound 2 and 7.5 mg/kg BTK-1), see Table 2. The compounds were administered by oral gavage (p.o.) twice daily (BID). After implantation, primary tumor volume was measured in two dimensions using a caliper. Compound 2 was (S)-3-(1-(8-amino-1-methylimidazo[1,5-a]pyrazin-3-yl)ethyl)-5-chloro-6-fluoro-2-isopropoxy-N-(2-(4-methylpiperazin-1-yl)ethyl)benzamide fumarate.
Mice were euthanized using carbon dioxide when their tumor volume reached 2,000 mm^3 after twice measurements, the tumor was ulcerated, or body weight loss exceeded 20%.
as §1, with “following formula: % TGI=100×[1−(treatedt/vehiclet)](treatedt=treated tumor volume at time t) and (vehiclet=vehicle tumor volume at time t)” for “formula in the above examples.”

JeKo-1 cells = assay: JeKo-1 MCL xenograft mouse model, tumor growth inhibition; settings: single agent, day 21
Method: JeKo-1 cells are of mantle cell lymphoma (MCL) origin. These cells were cultured in RPMI1640 complete medium supplemented with 10% (v/v) fetal bovine serum, and 100 μg/mL of penicillin and streptomycin. NOD/SCID mice were pre-treated with cyclophosphamide (prepared in saline, 100 mg/kg, i.p.) and disulfiram (prepared in 0.8% Tween-80 in saline, 125 mg/kg, p.o., two hours after each dose of cyclophosphamide) once daily for two days.
On the day of implantation, aggregated cells were dispersed. Four hours later, the media was removed, and the cells were collected and re-suspended in cold (4° C.) DPBS with a final concentration of 1×10^8 cells/mL. Re-suspended cells were placed on ice prior to inoculation. The right flank region of each mouse was cleaned with 75% ethanol prior to cell inoculation. Animals were then co-injected subcutaneously with 1×10^7 JeKo-1 cells in 100 μL of cell suspension in the right front flank via a 26-gauge needle.
Animals were randomly divided into six groups with 10 mice per group. The groups consisted of vehicle group (0.5% (w/v) methylcellulose solution), 7.5 mg/kg BTK-1 (dissolved in 0.5% (w/v) methylcellulose solution), 12 mg/kg Compound 2 (dissolved in 0.5% (w/v) methylcellulose solution), 36 mg/kg Compound 2 (dissolved in 0.5% (w/v) methylcellulose solution), and the combination of Compound 2/BTK-1 (12 mg/kg Compound 2 and 7.5 mg/kg BTK-1), or (36 mg/kg Compound 2 and 7.5 mg/kg BTK-1), see Table 1. […]
Both compounds were administered by oral gavage (p.o.) twice daily (BID). After implantation, primary tumor volume was measured in two dimensions using a caliper.
(§2) Individual body weight was recorded twice weekly, with mice being monitored daily for clinical signs of toxicity for the duration of the study. […]
as §1, with “following formula: % TGI=100×[1−(treatedt/vehiclet)](treatedt=treated tumor volume at time t) and (vehiclet=vehicle tumor volume at time t)” for “formula in the above examples.”

Farage cells = assay: Farage DLBCL xenograft mouse model, tumor growth inhibition; settings: single agent, day 25
Method: Farage cells are of DLBCL origin. Farage cells were cultured in RPMI1640 complete medium supplemented with 10% (v/v) fetal bovine serum, and 100 μg/mL of penicillin and streptomycin. On the day of implantation, aggregated cells were dispersed. Four hours later, media was removed and the cells were collected as described above. Cells were re-suspended in cold (4° C.) PBS and same volume of matrigel was added to give a final concentration of 1.5×10^7 cells/mL for Farage. Re-suspended cells were placed on ice prior to inoculation. The right flank region of each mouse (NCG) was cleaned with 75% ethanol prior to cell inoculation. Animals were then injected subcutaneously with 3×10^6 Farage cells in 100 μl of cell suspension in the right front flank via a 26-gauge needle.
The animals were randomly divided into 6 groups with 10 mice per group. The groups consisted of vehicle group (0.5% (w/v) methylcellulose solution), 7.5 mg/kg BTK-1 (dissolved in 0.5% (w/v) methylcellulose solution), 12 mg/kg Compound 2 (dissolved in 0.5% (w/v) methylcellulose solution), 36 mg/kg Compound 2 (dissolved in 0.5% (w/v) methylcellulose solution), and the combination of Compound 2 and BTK-1 (12 mg/kg and 7.5 mg/kg, respectively), or (36 mg/kg and 7.5 mg/kg, respectively), see Table 4. BTK-1 and Compound 2 were administered as a combination by oral gavage (p.o.) twice daily (BID). After implantation, primary tumor volume was measured in two dimensions using a caliper. Compound 2 was (S)-3-(1-(8-amino-1-methylimidazo [1,5-a] pyrazin-3-yl) ethyl)-5-chloro-6-fluoro-2-isopropoxy-N-(2-(4-methylpiperazin-1-yl) ethyl) benzamide fumarate.
as §2, §1

[1] = Bioavailability of salts of Compound 1; settings: among different salts of Compound 1

Q: Which results are given for `Cc1nc([C@@H](C)c2cc(Cl)c(F)c(C(=O)NCCN3CCN(C)CC3)c2OC(C)C)n2ccnc(N)c12` [Compound 1, (S)-3-(1-(8-amino-1-methylimidazo[1,5-a]pyrazin-3-yl)ethyl)-5-chloro-6-fluoro-2-isopropoxy-N-(2-(4-methylpiperazin-1-yl)ethyl)benzamide]?
A: % TGI (TMD8 cells; 10 mg/kg p.o. BID): 27%; % TGI (TMD8 cells; 30 mg/kg p.o. BID): 26%; % TGI (TMD8 cells; 100 mg/kg p.o. BID): 43%

Q: Which results are given for `C=CC(=O)N1CCC([C@@H]2CCNc3c(C(N)=O)c(-c4ccc(Oc5ccccc5)cc4)nn32)CC1` [BTK-1, (S)-7-(1-acryloylpiperidin-4-yl)-2-(4-phenoxyphenyl)-4,5,6,7-tetra-hydropyrazolo[1,5-a]pyrimidine-3-carboxamide]?
A: % TGI (MINO cells; 7.5 mg/kg p.o. BID): 22%; % TGI (JeKo-1 cells; 7.5 mg/kg p.o. BID): 43%; % TGI (TMD8 cells; 2.5 mg/kg p.o. BID): 68%; % TGI (Farage cells; 7.5 mg/kg p.o. BID): 43%

Q: For `Cc1nc([C@@H](C)c2cc(Cl)c(F)c(C(=O)NCCN3CCN(C)CC3)c2OC(C)C)n2ccnc(N)c12.O=C(O)/C=C/C(=O)O` [Compound 2, (S)-3-(1-(8-amino-1-methylimidazo[1,5-a]pyrazin-3-yl)ethyl)-5-chloro-6-fluoro-2-isopropoxy-N-(2-(4-methylpiperazin-1-yl)ethyl)benzamide fumarate], which bioavailability [1] is on record?
A: Its bioavailability is “high bioavailability”.

Q: What about the “% TGI” value (MINO cells; 12 mg/kg p.o. BID) of the same compound?
A: The value was 26%.

Q: What about the “% TGI” value (MINO cells; 36 mg/kg p.o. BID) of the same compound?
A: The value was 36%.

Q: And the “% TGI” value (JeKo-1 cells; 12 mg/kg p.o. BID)?
A: The value was 59%.

Q: What about the “% TGI” value (JeKo-1 cells; 36 mg/kg p.o. BID) of the same compound?
A: The value was 62%.

Q: And the “% TGI” value (Farage cells; 12 mg/kg p.o. BID)?
A: Its value is 40%.

Q: And the “% TGI” value (Farage cells; 36 mg/kg p.o. BID)?
A: The value was 52%.
